Experimental data as given in paper PMC11990136, “Prenylation of Flavanones by an Aromatic Prenyltransferase from Fusarium globosum” (Molecules, 2025).

Experiments:
FgPT1 [1] = target: T1, FgPT1 (Fusarium globosum, UniProt A0A8H5XPW9); assay: HPLC product formation, Michaelis-Menten fit; format: biochemical; conditions: 1 mM DMAPP, 1 mM BaCl2, 100 mM Tris-HCl pH 7.5, 37 °C, apparent
T1 construct: gene FGLOB1_12591; full length, 426 residues, N-terminal His6 tag (pET-28a, synthetic gene), E. coli BL21(DE3), Ni-NTA
T1 sequence (A0A8H5XPW9 entry or part of it): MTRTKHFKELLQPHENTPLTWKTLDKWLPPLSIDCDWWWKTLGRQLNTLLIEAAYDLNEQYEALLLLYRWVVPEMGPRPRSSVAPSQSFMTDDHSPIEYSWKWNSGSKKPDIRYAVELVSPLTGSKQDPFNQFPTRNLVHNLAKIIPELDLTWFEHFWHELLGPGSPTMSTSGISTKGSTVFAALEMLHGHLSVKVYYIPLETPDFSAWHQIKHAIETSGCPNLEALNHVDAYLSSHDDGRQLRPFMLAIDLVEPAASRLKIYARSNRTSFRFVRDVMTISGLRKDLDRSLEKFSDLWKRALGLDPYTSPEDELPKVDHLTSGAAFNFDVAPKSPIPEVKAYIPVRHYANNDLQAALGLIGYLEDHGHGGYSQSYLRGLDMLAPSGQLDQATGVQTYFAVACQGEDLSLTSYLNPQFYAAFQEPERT
Description: HPLC product formation, Michaelis-Menten fit on FgPT1

FgPT1 [2] = target: T1, FgPT1; assay: HPLC / LC-MS product detection; format: biochemical; conditions: prenyl donor; with flavanone acceptor, metal ion (Ba2+ best), Tris-HCl pH 7.5, 37 °C

| SMILES | KM (mM) (FgPT1 [1]) | also measured |
| --- | --- | --- |
| COc1ccc([C@@H]2CC(=O)c3c(O)cc(O)cc3O2)cc1O [compound 2, Hesperetin] | 0.94 ± (0.075) mM |  |
| O=C1C[C@@H](c2ccc(O)cc2)Oc2cc(O)cc(O)c21 [compound 1, Naringenin] | 0.26 ± (0.077) mM |  |
| O=C1C[C@@H](c2ccc(O)cc2)Oc2cc(O)ccc21 [compound 4, Liquiritigenin] | 0.93 ± (0.161) mM |  |
| O=C1CC(c2ccccc2)Oc2cc(O)cc(O)c21 (racemic) [compound 5, Rac-pinocembrin] |  | KM (mM) (FgPT1 [1]; racemic substrate): 0.14 ± (0.037) mM |
| CC(C)=CCOP(=O)(O)OP(=O)(O)O [DMAPP] |  | HPLC / LC-MS product detection (FgPT1 [2]): using DMAPP as the prenyl donor revealed catalytic activity exclusively toward six flavanones |
| O=C1c2c(O)cc(O)cc2OCC1c1ccc(O)cc1 (stereo not shown) [compound 6, Dihydrogenistein] | 0.14 ± (0.026) mM |  |
| O=C1C[C@@H](c2ccc(O)c(O)c2)Oc2cc(O)cc(O)c21 [compound 3, Eriodictyol] | 0.23 ± (0.026) mM |  |
